Marks after values point to notes of the source that are not given here.
Assays:
[1] = test system: human PMNs; test: PMA-induced chemiluminescence in PMNs; format: cell-based; conditions: 0.1 μM PMA, 0 to 60 min; five independent experiments in triplicate, 5 donors
Experimental: Reactive oxygen species (ROS) formation by PMNs was measured using luminol-dependent chemiluminescence assay (CL) in white flat-bottom 96-well microplates (NUNC, Denmark). The reaction mixture of total volume 200 μl in each well contained: 100 μl of PMN suspension in HBSS–Ca^++Mg^++ (10^5 cells/well), 40 μl of luminol (50 μM/well), 40 μl of fMLP (0.2 μM/well), 20 μl of particular NP (in the range 10^−12–10^−8 M/well). In other experiments, the respiratory burst was triggered by phagocytosis of 40 μl heat killed (56°C/30 min) M. catarrhalis ATCC 25238 or H. influenzae ATCC 49247 at concentration of ½ of OD600 = 1 or OD600 = 1, respectively. […] The PMA stimulus at 0.1 μM final concentration was used as positive control of the relevant oxidative stress. The CL kinetics was measured at constant 37°C temperature using luminometer (Microlumat, LB96P, Berthold) and recorded as relative light units (RLU). Measuring conditions for fMLP were: interval (46 s), run time (up to 30 min). The conditions for bacterial and PMA stimulation were: interval (83 s), run time (up to 60 min). The maximal value of CL response curve was expressed as peak height (PHCL) for fMLP stimulant. In other cases the area under chemiluminescence curve (AUCCL) was calculated. Each sample was run in triplicate and the values were averaged. […] Results were expressed as mean ± SD. […]

[2] = test system: E. coli ML-35p; test: ONPG-mediated β-galactosidase membrane permeability assay; format: cell-based, Escherichia coli; conditions: for time of maximal OD increase (ONPG influx): 100 μM neuropeptide; for ID50 (inducible dose) for intracellular influx of ONPG: dose causing 50% increase in OD405 in reference to chloroform-inducible maximum at 45 min, 10^6 CFU/ml, NaPB pH 7.4, 3 mM ONPG, 37°C, triplicate
Experimental: To measure the activity of neuropeptides in permeabilization of bacterial membrane, the ONPG-mediated β-galactosidase microplate assay was used. Permeabilization was measured using E. coli ML-35 with constitutive cytoplasmic β-galactosidase activity as previously described. Briefly, 18 h E. coli ML-35p in TSB was recultivated in TSB until mid-log phase (OD600 = 0.5). Flasks were put on ice for 20 min, and 2 ml of bacterial suspensions were transferred to Eppendorf tubes, washed twice with 10 mM sodium phosphate NaPB (pH 7.4) and suspended in NaPB to OD600 = 0.5. […] Microplates were incubated at 37°C for 1.5 h and optical densities were measured every 15 minutes at λ=405 nm (spectrophotometer Opsys MR Dynex Technologist). All the assays were performed in triplicate. Two positive controls were used: polymyxin B at the final concentration of 1 μg/ml as an established model of peptide permeabilizing action, and 20% chloroform (v/v). […] The molar concentration of NP that caused such increase was extrapolated from a linear portion of NP titration curve. Negative controls constituted bacteria incubated with NaPB and ONPG but without neuropeptides.

[3] = test system: M. catarrhalis Mc5, Mc6; test: Time kill assay from 0 to 1.5 h; format: cell-based, Moraxella catarrhalis; conditions: 100 μM
Experimental: (§1) For the time kill assay from 0 to 1.5 h, overnight cultures of Mc and NTHi were inoculated into new medium and incubated under the relevant conditions until early log-phase (OD600 = 0.25–0.3). The bacteria were diluted in 10 mM sodium phosphate buffer, NaPB, (pH 7.4) containing 1% (w/v) BHI to obtain ~2 x 10^6 CFU/ml. […] After each time of incubation the suspensions were 10-fold serially diluted with 10 mM NaPB-1% BHI and 20 μl aliquots were plated in triplicate on BHI (M. catarrhalis) or HAEM (H. influenzae) agar plates. The plates were incubated overnight at 37°C in 5% CO2 conditions. Simultaneously, the incubation of bacteria in the presence of an appropriate diluent was included for positive control of bacterial growth. The colony counts and CFU/ml were calculated next day. The bactericidal activity of neuropeptides was expressed as survival ratios determined as the numbers of CFU after neuropeptide incubation divided by the numbers of CFU estimated from a control plate (time 0). All antimicrobial assays were performed at least two times in triplicate.

[4] = test system: nontypeable H. influenzae NTHi3, NTHi6; test: Time kill assay from 0 to 1.5 h; format: cell-based, Haemophilus influenzae; conditions: 100 μM, clinical isolates of H. influenzae
Experimental: as §1

[5] = test system: human PMNs; test: fMLF-induced ROS generation by PMNs, luminol-dependent chemiluminescence; format: cell-based; conditions: for ROS release [% of control]: 0.2 μM fMLF, peak height PHCL, mean of three independent experiments
Experimental: (§2) Polymorphonuclear leukocytes (PMNs) from healthy young adult volunteers were isolated from venous blood samples anticoagulated with Lithium-heparin (7.5 ml) by ficoll (Aqua-Med, Poland) density gradient centrifugation (2000 rpm/30 min), followed by hypotonic lysis of erythrocytes with a lysing buffer (0.83% NH4Cl, 0.1% KHCO3, EDTA, pH 7.4). After two washes (1400 rpm/10 min) in PBS, PMNs were resuspended to the final concentration of […] cells/ml in phagocytic buffer: HBSS with Ca^++ and Mg^++ supplemented with 1% HiFBS. The purity of granulocyte suspensions was checked using 15 μg/ml of acridine orange. […] Isolated PMNs were kept for 30 min at 37°C and 5% CO2 until used.
Reactive oxygen species (ROS) formation by PMNs was measured using luminol-dependent chemiluminescence assay (CL) in white flat-bottom 96-well microplates (NUNC, Denmark). The reaction mixture of total volume 200 μl in each well contained: 100 μl of PMN suspension in HBSS–Ca^++Mg^++ (10^5 cells/well), 40 μl of luminol (50 μM/well), 40 μl of fMLP (0.2 μM/well), 20 μl of particular NP (in the range 10^−12–10^−8 M/well). In other experiments, the respiratory burst was triggered by phagocytosis of 40 μl heat killed (56°C/30 min) M. catarrhalis ATCC 25238 or H. influenzae ATCC 49247 at concentration of ½ of OD600 = 1 or OD600 = 1, respectively. […] The PMA stimulus at 0.1 μM final concentration was used as positive control of the relevant oxidative stress. The CL kinetics was measured at constant 37°C temperature using luminometer (Microlumat, LB96P, Berthold) and recorded as relative light units (RLU). Measuring conditions for fMLP were: interval (46 s), run time (up to 30 min). The conditions for bacterial and PMA stimulation were: interval (83 s), run time (up to 60 min). The maximal value of CL response curve was expressed as peak height (PHCL) for fMLP stimulant. In other cases the area under chemiluminescence curve (AUCCL) was calculated. Each sample was run in triplicate and the values were averaged. […] Results were expressed as mean ± SD.

[6] = test system: human PMNs stimulated with M. catarrhalis ATCC 25238; test: M. catarrhalis-stimulated ROS generation by PMNs, luminol-dependent chemiluminescence; format: cell-based; conditions: 10^−8 M NP, nonopsonized M. catarrhalis; mean ± SD, n = 5-6 donors
Experimental: as §2
Reactive oxygen species (ROS) formation by PMNs was measured using luminol-dependent chemiluminescence assay (CL) in white flat-bottom 96-well microplates (NUNC, Denmark). The reaction mixture of total volume 200 μl in each well contained: 100 μl of PMN suspension in HBSS–Ca^++Mg^++ (10^5 cells/well), 40 μl of luminol (50 μM/well), 40 μl of fMLP (0.2 μM/well), 20 μl of particular NP (in the range 10^−12–10^−8 M/well). […] The maximal value of CL response curve was expressed as peak height (PHCL) for fMLP stimulant. In other cases the area under chemiluminescence curve (AUCCL) was calculated. […] Results were expressed as mean ± SD.

Row | Structure (SMILES) | log10 of mean AUCCL ± SEM [1] | time of maximal OD increase (ONPG influx) [2] | ID50 (inducible dose) for intracellular influx of ONPG [2] | type of antibacterial activity ([3]; both Mc strains) | type of antibacterial activity [4] | culture survived ([3]; Mc5 and Mc6, 0.5 h) | ROS release [% of control] ([5]; 10^-8 M NP) | ROS release [% of control] ([5]; 10^-10 M NP) | ROS release [% of control] ([5]; 10^-12 M NP) | activation of respiratory burst of PMNs ([5]; neuropeptide alone, without stimulus) | increase of mean AUCCL [6]
1 | CCCCCCCCCCCCCC(=O)O[C@@H]1[C@@H](C)[C@@]2(O)[C@@H](C=C(CO)C[C@]3(O)C(=O)C(C)=C[C@@H]23)[C@@H]2C(C)(C)[C@]12OC(C)=O [PMA, phorbol myristate acetate] | 6.05 ± 4.32 |  |  |  |  |  |  |  |  |  | 
2 | C[C@H](N)C(=O)NCC(=O)N[C@H]1CSSC[C@@H](C(=O)O)NC(=O)[C@H](CO)NC(=O)[C@H]([C@@H](C)O)NC(=O)[C@H](Cc2ccccc2)NC(=O)[C@H]([C@@H](C)O)NC(=O)[C@H](CCCCN)NC(=O)[C@H](Cc2c[nH]c3ccccc23)NC(=O)[C@H](Cc2ccccc2)NC(=O)[C@H](Cc2ccccc2)NC(=O)[C@H](CC(N)=O)NC(=O)[C@H](CCCCN)NC1=O [SOM, somatostatin] |  | 90 min | 104.1 µM | bacteriostatic | bacteriostatic |  |  |  |  |  | 
3 | CSCC[C@H](NC(=O)[C@H](CC(C)C)NC(=O)CNC(=O)[C@H](Cc1ccccc1)NC(=O)[C@H](Cc1ccccc1)NC(=O)[C@H](CCC(N)=O)NC(=O)[C@H](CCC(N)=O)NC(=O)[C@@H]1CCCN1C(=O)[C@H](CCCCN)NC(=O)[C@@H]1CCCN1C(=O)[C@@H](N)CCCNC(=N)N)C(N)=O [SP, substance P] |  | 90 min | 29.2 µM |  |  | ~100% | 179.18^a % of control | 160.36^a % of control | 140.83^a % of control | did not activate | 14.2 ± 3.4%

— publication PMC3460729, “Innate immune properties of selected human neuropeptides against Moraxella catarrhalis and nontypeable Haemophilus influenzae” (BMC Immunology, 2012)
